Results taken from ChEMBL document CHEMBL3044875, “Synthesis and antimicrobial activity of some bisoctahydroxanthene-1,8-dione derivatives” (2011).
Calls of active or inactive are those of the source. No cut-off for these calls is given here.

How the values were obtained:
Rhodotorula mucilaginosa [1] = test: Antifungal activity against Rhodotorula mucilaginosa at 100 U/disk after 48 hr by disk diffusion method; type: functional, organism-based
Pseudomonas aeruginosa [2] = test: Antibacterial activity against Pseudomonas aeruginosa ATCC 27853 at 140 ug/disk after 24 hr by disk-diffusion method; type: functional, organism-based
Candida albicans [3] = test: Antifungal activity against Candida albicans ATCC 10231 at 20 ug/disk after 48 hr by disk-diffusion method; type: functional; details: ATCC 10231, 48 h, read-out: DIZ
Bacillus cereus [4] = test: Antibacterial activity against Bacillus cereus NRRL 3711 at 40 ug/disk after 24 hr by disk diffusion method; type: functional; details: NRRL 3711, 24 h, read-out: DIZ
Proteus vulgaris [5] = test: Antibacterial activity against Proteus vulgaris NRRL-B-123 at 140 ug/disk after 24 hr by disk diffusion method; type: functional, organism-based
[6] = test system: Staphylococcus epidermidis; test: Antibacterial activity against Staphylococcus epidermidis ATCC 12228 at 40 ug/disk after 24 hr by disk diffusion method; type: functional
Pseudomonas aeruginosa [7] = test: Antibacterial activity against Pseudomonas aeruginosa ATCC 27853 at 40 ug/disk after 24 hr by disk-diffusion method; type: functional, organism-based
[8] = test system: Staphylococcus epidermidis; test: Antibacterial activity against Staphylococcus epidermidis ATCC 12228 at 20 ug/disk after 24 hr by disk diffusion method; type: functional, organism-based
Staphylococcus aureus [9] = test: Antibacterial activity against Staphylococcus aureus ATCC 25923 at 40 ug/disc after 24 hr by disk diffusion method; type: functional
Nocardia [10] = test: Antibacterial activity against Nocardia canis at 140 ug/disk after 24 hr by disk diffusion method; type: functional
Pseudomonas aeruginosa [11] = test: Antibacterial activity against Pseudomonas aeruginosa ATCC 27853 at 20 ug/disk after 24 hr by disk-diffusion method; type: functional, organism-based
Rhodotorula mucilaginosa [12] = test: Antifungal activity against Rhodotorula mucilaginosa at 20 ug/disk after 48 hr by disk diffusion method; type: functional
Escherichia coli [13] = test: Antibacterial activity against Escherichia coli ATCC 25922 at 140 ug/disk after 24 hr by disk-diffusion method; type: functional
Aspergillus niger [14] = test: Antifungal activity against Aspergillus niger ATCC 10949 at 40 ug/disk after 72 hr by disk diffusion method; type: functional, organism-based
Candida albicans [15] = test: Antifungal activity against Candida albicans ATCC 10231 at 40 ug/disk after 48 hr by disk-diffusion method; type: functional; details: ATCC 10231, 48 h, read-out: DIZ
Escherichia coli [16] = test: Antibacterial activity against Escherichia coli ATCC 25922 at 40 ug/disk after 24 hr by disk-diffusion method; type: functional
Nocardia [17] = test: Antibacterial activity against Nocardia canis at 20 ug/disk after 24 hr by disk diffusion method; type: functional, organism-based
Rhodotorula mucilaginosa [18] = test: Antifungal activity against Rhodotorula mucilaginosa at 140 ug/disk after 48 hr by disk diffusion method; type: functional; details: read-out: DIZ
Aspergillus niger [19] = test: Antifungal activity against Aspergillus niger ATCC 10949 at 20 ug/disk after 72 hr by disk diffusion method; type: functional, organism-based
Candida albicans [20] = test: Antifungal activity against Candida albicans ATCC 10231 at 140 ug/disk after 48 hr by disk-diffusion method; type: functional; details: ATCC 10231, 48 h, read-out: DIZ
[21] = test system: Staphylococcus epidermidis; test: Antibacterial activity against Staphylococcus epidermidis ATCC 12228 at 140 ug/disk after 24 hr by disk diffusion method; type: functional
Rhodotorula mucilaginosa [22] = test: Antifungal activity against Rhodotorula mucilaginosa at 40 ug/disk after 48 hr by disk diffusion method; type: functional
Staphylococcus aureus [23] = test: Antibacterial activity against Staphylococcus aureus ATCC 25923 at 140 ug/disc after 24 hr by disk diffusion method; type: functional
Proteus vulgaris [24] = test: Antibacterial activity against Proteus vulgaris NRRL-B-123 at 40 ug/disk after 24 hr by disk diffusion method; type: functional, organism-based
Proteus vulgaris [25] = test: Antibacterial activity against Proteus vulgaris NRRL-B-123 at 20 ug/disk after 24 hr by disk diffusion method; type: functional, organism-based
Staphylococcus aureus [26] = test: Antibacterial activity against Staphylococcus aureus ATCC 25923 at 20 ug/disc after 24 hr by disk diffusion method; type: functional
Bacillus cereus [27] = test: Antibacterial activity against Bacillus cereus NRRL 3711 at 20 ug/disk after 24 hr by disk diffusion method; type: functional; details: NRRL 3711, 24 h, read-out: DIZ
Bacillus cereus [28] = test: Antibacterial activity against Bacillus cereus NRRL 3711 at 140 ug/disk after 24 hr by disk diffusion method; type: functional; details: NRRL 3711, 24 h, read-out: DIZ
Nocardia [29] = test: Antibacterial activity against Nocardia canis at 40 ug/disk after 24 hr by disk diffusion method; type: functional
Escherichia coli [30] = test: Antibacterial activity against Escherichia coli ATCC 25922 at 20 ug/disk after 24 hr by disk-diffusion method; type: functional
Aspergillus niger [31] = test: Antifungal activity against Aspergillus niger ATCC 10949 at 140 ug/disk after 72 hr by disk diffusion method; type: functional

Molecule	diameter of the inhibition zone (DIZ) (Pseudomonas aeruginosa [2])	zone of inhibition at 20 µg/disc (Candida albicans [3])	zone of inhibition at 40 µg/disc (Bacillus cereus [4])	diameter of the inhibition zone (DIZ) (Proteus vulgaris [5])	diameter of the inhibition zone (DIZ) [6]	diameter of the inhibition zone (DIZ) (Pseudomonas aeruginosa [7])	diameter of the inhibition zone (DIZ) [8]	diameter of the inhibition zone (DIZ) (Staphylococcus aureus [9])	diameter of the inhibition zone (DIZ) (Nocardia [10])	diameter of the inhibition zone (DIZ) (Pseudomonas aeruginosa [11])	diameter of the inhibition zone (DIZ) (Rhodotorula mucilaginosa [12])	diameter of the inhibition zone (DIZ) (Escherichia coli [13])	diameter of the inhibition zone (DIZ) (Aspergillus niger [14])	zone of inhibition at 40 µg/disc (Candida albicans [15])	diameter of the inhibition zone (DIZ) (Escherichia coli [16])	diameter of the inhibition zone (DIZ) (Nocardia [17])	zone of inhibition at 140 µg/disc (Rhodotorula mucilaginosa [18])	diameter of the inhibition zone (DIZ) (Aspergillus niger [19])	zone of inhibition at 140 µg/disc (Candida albicans [20])	diameter of the inhibition zone (DIZ) [21]	other results
NYSTATIN																					inhibition zone (IZ) (Rhodotorula mucilaginosa [1]): 21 mm
O=C1CC(c2ccccc2)CC2=C1C(c1cccc(C3C4=C(CC(c5ccccc5)CC4=O)OC4=C3C(=O)CC(c3ccccc3)C4)c1)C1=C(CC(c3ccccc3)CC1=O)O2 (stereo unspecified)	inactive	7 mm	11 mm	inactive	inactive	inactive	inactive	inactive	inactive	inactive	inactive	inactive	inactive	8 mm	inactive	inactive	7 mm	inactive	8 mm	inactive	diameter of the inhibition zone (DIZ) (Rhodotorula mucilaginosa [22]): inactive; diameter of the inhibition zone (DIZ) (Staphylococcus aureus [23]): inactive; diameter of the inhibition zone (DIZ) (Proteus vulgaris [24]): inactive; diameter of the inhibition zone (DIZ) (Proteus vulgaris [25]): inactive; diameter of the inhibition zone (DIZ) (Staphylococcus aureus [26]): inactive; zone of inhibition at 20 µg/disc (Bacillus cereus [27]): 8 mm; zone of inhibition at 140 µg/disc (Bacillus cereus [28]): 12 mm; diameter of the inhibition zone (DIZ) (Nocardia [29]): inactive; diameter of the inhibition zone (DIZ) (Escherichia coli [30]): inactive; diameter of the inhibition zone (DIZ) (Aspergillus niger [31]): inactive
O=C1CC(c2ccccc2)CC2=C1C(c1ccc(C3C4=C(CC(c5ccccc5)CC4=O)OC4=C3C(=O)CC(c3ccccc3)C4)cc1)C1=C(CC(c3ccccc3)CC1=O)O2 (stereo unspecified)	inactive	7 mm	10 mm	inactive	inactive	inactive	inactive	inactive	inactive	inactive	inactive	inactive	inactive	8 mm	inactive	inactive	7 mm	inactive	8 mm	inactive	diameter of the inhibition zone (DIZ) (Rhodotorula mucilaginosa [22]): inactive; diameter of the inhibition zone (DIZ) (Staphylococcus aureus [23]): inactive; diameter of the inhibition zone (DIZ) (Proteus vulgaris [24]): inactive; diameter of the inhibition zone (DIZ) (Proteus vulgaris [25]): inactive; diameter of the inhibition zone (DIZ) (Staphylococcus aureus [26]): inactive; zone of inhibition at 20 µg/disc (Bacillus cereus [27]): 8 mm; zone of inhibition at 140 µg/disc (Bacillus cereus [28]): 10 mm; diameter of the inhibition zone (DIZ) (Nocardia [29]): inactive; diameter of the inhibition zone (DIZ) (Escherichia coli [30]): inactive; diameter of the inhibition zone (DIZ) (Aspergillus niger [31]): inactive
